{"source": "paper PMC8298375", "about": "(Naunyn-Schmiedeberg's Archives of Pharmacology, 2021)", "key": {"AChE [1]": {"system": "AChE", "assay_type": "in vivo, rat", "settings": "scopolamine model; for % AChE Inhibition: plasma", "protocol": "Samples were then centrifuged at 10,000 rpm for 5 min, and plasma was stored at − 70 °C until analysis.\n(§1) Thiocholine, which was produced due to the hydrolysis of acetylthiocholine (ACTI) by AChE, was estimated by making it react with 5, 5′-dithiobis-(2-nitrobenzoic acid) (DTNB). The chemical, 5-thio-2-nitrobenzoic acid (yellow color complex), which was released due to reaction was estimated using a UV spectrophotometer in the range of 400 to 420 nm with maximal absorption at 412 nm. One hundred microliter of blank rat plasma was taken in the polypropylene vials. To this, 2.8 mL of phosphate buffer (0.01 M, pH 8) and 100 µL of DTNB reagents were added and mixed well. Then, 20 µL of ACTI (26.01 mg/mL of Milli-Q water) was added to the contents of the cuvette to initiate the enzyme reaction. The reaction kinetics was monitored at different time intervals (0, 1, 2, 3, 4 min), and absorbance was noted. 2.8 mL buffer (0.01 M, pH 8.0) and 100 µL DTNB reagent served as blank. Concentrations in the range of 0.03–30 mM were prepared using methanol as a diluent. […] Substrate concentration and reaction time were optimized such that sufficient concentration of ACTI is available to bind with the enzyme to initiate the reaction and also it should not saturate the enzyme. In this study, varying concentrations (100–1000 µM) of ACTI were prepared, and reaction kinetics were observed. In general, the maximum time should be either 2–4 min or even less, because the enzyme might undergo degradation. In the present study, up to 4 min of reaction kinetics (changing the optical density or absorbance) was measured. One unit of AChE activity is defined as the number of µmol of acetylthiocholine iodide hydrolyzed per minute. The specific activity of AChE is expressed in moles/min/mg of protein (Kaur et al. [2015]): AChEActivity=(abs.permin×1000×volumeofenzyme)/(13600×TRM)AChEActivity=abovevalue×1000(nanomolar/min/mL)\n(§2) where 13,600 = molar extinction coefficient of DTNB: 1000-molar conversion factor: (TRM) total reaction mixture 3 mL: volume of enzyme (0.1 mL)."}, "[2]": {"system": "ICV colchicine-induced dementia rats", "test": "Passive avoidance test, ICV colchicine-induced dementia (chronic model)", "assay_type": "in vivo, Wistar rats", "protocol": "(§3) In the chronic model, the rats were trained for MWM and PAT tasks for the first 4 days followed by intracerebroventricular (i.c.v.) administration of colchicine on day 6. After establishing dementia on day 10 of the colchicine administration, the drug treatment was initiated from day 11 to 24. The effects of different drug treatments on dementia were assessed on days 14 and 21. On these particular days, the swim test was performed 15 min after the administration of different treatments and escape latencies; residence time and peripheral swim time were recorded (Nampoothiri [2017]). The retention trials for PAT on day 17 and 23 were performed on days 17 and 23, 15 min after the administration of the drug.\nOn the 6th day, surgery was performed as described (Bokare et al. [2018]). Rat was anesthetized with sodium pentobarbital (45 mg/kg, i.p.) and positioned in stereotaxic apparatus. The head was positioned in a frame, and a midline sagittal incision was made in the scalp. Two holes were drilled through the skull at coordinates (0.8 mm posterior to bregma, 1.8 mm lateral to the sagittal suture, and 3.6 mm beneath the cortical surface) to place the injection cannula. Rats were intracerebroventricularly infused with either artificial cerebrospinal fluid (ACSF; in mM: 147 NaCl, 2.9 KCl, 1.6 MgCl2, 1.7 CaCl2, and 2.2 dextrose) or 15 µg of colchicine in 5 µL ACSF using a Hamilton microsyringe positioned in the injection cannula. To promote back diffusion, the microsyringe was left in place for 2 min following injection. The scalp was then closed with a suture. After surgery, all animals received gentamicin (5 mg/kg, i.p.) to prevent sepsis. Special care was taken during the postoperative period to provide food and water inside the cage of the rat. In sham-operated rats, surgery was identical except for injection of the solution.\nThe passive avoidance apparatus consists of a larger illuminated compartment and a smaller dark compartment. Each consists of a square box, with a floor grid of 50 × 50 cm and wooden walls of 35-cm height in larger compartment. Larger box was illuminated by 15 W Philips CFL lamp. A smaller dark compartment of 15 × 15 cm with an electrified floor is connected to a constant current stimulator. An opening 6 × 6 cm in between the two compartments was closed using a transparent plexiglass sliding door. The test procedure was carried out in three phases, exploration, learning, and retention (Praveenkumar [2019]).\nFirst day, the animal was placed in the center of the illuminated larger compartment facing away from the entrance to the small darker compartment and allowed to explore the apparatus, i.e., both compartments for 3 min. Total time spent in the larger and smaller compartments and the number of crossings (from larger to smaller compartments and vice versa; a measure of exploratory behavior) were noted. On the second day, animal was placed in the illuminated larger compartment facing away from the entrance to the darker compartment. Once the animal entered the darker compartment, the entrance to the larger compartment was closed, and three strong electric foot shocks (50 Hz, 0.5 mA, 2 s) with 10-s intervals were applied. On the third day, rats were placed in the illuminated larger compartment and allowed to explore both the compartments for 3 min. The parameters assessed are latency time to enter into darker compartment, time spent in the darker and brighter compartments, and the number of crossings between the compartments."}, "AChE [3]": {"system": "AChE", "assay_type": "in vivo, rat", "settings": "colchicine model", "protocol": "as §1, §2"}, "[4]": {"system": "ICV colchicine-induced dementia rats", "test": "Locomotor activity (photoactometer), colchicine-induced dementia", "assay_type": "in vivo, Wistar rats", "settings": "colchicine model; Mean ± SEM; photo beam counts for 5 min; listed as COL + ORSM", "protocol": "as §3\nOn the 6th day, surgery was performed as described (Bokare et al. [2018]). Rat was anesthetized with sodium pentobarbital (45 mg/kg, i.p.) and positioned in stereotaxic apparatus. The head was positioned in a frame, and a midline sagittal incision was made in the scalp. […]\nLocomotor activity was assessed in animals using a digital photoactometer (INCO, India) which contains a cage that is 30-cm long and 30-cm deep with a wire mesh at the bottom. […] Then, the ambulatory movements were recorded for 5 min and expressed in terms of total photo beam counts for 5 min per animal."}, "[5]": {"settings": "1st retention test, before colchicine administration, listed as COL + ORSM"}, "[6]": {"settings": "2nd retention test, day 17, listed as COL + ORSM"}, "[7]": {"settings": "3rd retention test, day 23, listed as COL + ORSM"}}, "note": "Read-outs that look alike come from different tables or passages of the source."}
{"compound": "CCN(C)C(=O)Oc1cccc([C@H](C)N(C)C)c1", "note": "[ORSM, rivastigmine]", "values": [{"measurement": "peak AChE inhibition (Emax, maximum inhibition) in plasma", "setting": "AChE [1]", "value": 71.11, "unit": "%"}, {"measurement": "time of peak AChE inhibition in plasma", "setting": "AChE [1]", "value": 60, "unit": "min"}, {"measurement": "% AChE Inhibition", "setting": "AChE [1]; 0 min, listed as SCP + ORSM", "value": "0.00 ± 0.0543", "unit": "%"}, {"measurement": "% AChE Inhibition", "setting": "AChE [1]; 5 min, listed as SCP + ORSM", "value": "26.67 ± 0.1358", "unit": "%"}, {"measurement": "% AChE Inhibition", "setting": "AChE [1]; 10 min, listed as SCP + ORSM", "value": "49.99 ± 0.1026", "unit": "%"}, {"measurement": "% AChE Inhibition", "setting": "AChE [1]; 15 min, listed as SCP + ORSM", "value": "62.03 ± 0.0877 a,b %"}, {"measurement": "% AChE Inhibition", "setting": "AChE [1]; 20 min, listed as SCP + ORSM", "value": "66.09 ± 0.0921", "unit": "%"}, {"measurement": "% AChE Inhibition", "setting": "AChE [1]; 30 min, listed as SCP + ORSM", "value": "64.89 ± 0.0895", "unit": "%"}, {"measurement": "% AChE Inhibition", "setting": "AChE [1]; 45 min, listed as SCP + ORSM", "value": "70.42 ± 0.0577", "unit": "%"}, {"measurement": "% AChE Inhibition", "setting": "AChE [1]; 60 min, listed as SCP + ORSM", "value": "71.11 ± 0.0438", "unit": "%"}, {"measurement": "% AChE Inhibition", "setting": "AChE [1]; 90 min, listed as SCP + ORSM", "value": "68.18 ± 0.0298", "unit": "%"}, {"measurement": "% AChE Inhibition", "setting": "AChE [1]; 120 min, listed as SCP + ORSM", "value": "64.36 ± 0.0262", "unit": "%"}, {"measurement": "% AChE Inhibition", "setting": "AChE [1]; 180 min, listed as SCP + ORSM", "value": "48.89 ± 0.0378", "unit": "%"}, {"measurement": "% AChE Inhibition", "setting": "AChE [1]; 240 min", "value": "37.05 ± 0.0184", "unit": "%"}, {"measurement": "Retention test, Latency time, 1st", "setting": "[2]; [5]", "value": "127.8 ± 21.13", "unit": "s"}, {"measurement": "Retention test, No. of crossings, 1st", "setting": "[2]; [5]", "value": "1.83±0.54"}, {"measurement": "Retention test, Time spent in darker chamber, 1st", "setting": "[2]; [5]", "value": "38.5 ± 16.47", "unit": "s"}, {"measurement": "Retention test, Latency time, 2nd", "setting": "[2]; [6]", "value": "90.55 ± 22.83", "unit": "s"}, {"measurement": "Retention test, No. of crossings, 2nd", "setting": "[2]; [6]", "value": "3.00±0.63"}, {"measurement": "Retention test, Time spent in darker chamber, 2nd", "setting": "[2]; [6]", "value": "68 ± 23.51", "unit": "s"}, {"measurement": "Retention test, No. of crossings, 3rd", "setting": "[2]; 3rd retention test, day 23", "value": "3.17±0.48"}, {"measurement": "Retention test, Latency time, 3rd", "setting": "[2]; [7]", "value": "48.83 ± 8.28", "unit": "s"}, {"measurement": "Retention test, Time spent in darker chamber, 3rd", "setting": "[2]; [7]", "value": "81.33 ± 10.56", "unit": "s"}, {"measurement": "Acquisition test, 2nd day", "setting": "[2]; colchicine model, 2nd day, listed as COL + ORSM", "value": "8.91 ± 2.049"}, {"measurement": "peak AChE inhibition in rat plasma", "setting": "AChE [3]", "value": 69.56, "unit": "%"}, {"measurement": "time of peak AChE inhibition in rat plasma", "setting": "AChE [3]", "value": 45, "unit": "min"}, {"measurement": "% AChE Inhibition in rat plasma", "setting": "AChE [3]; 0 min, listed as COL + ORSM", "value": "0.00 ± 0.0811", "unit": "%"}, {"measurement": "% AChE Inhibition in rat plasma", "setting": "AChE [3]; 5 min, listed as COL + ORSM", "value": "61.96 ± 0.0469", "unit": "%"}, {"measurement": "% AChE Inhibition in rat plasma", "setting": "AChE [3]; 10 min, listed as COL + ORSM", "value": "66.76 ± 0.0195", "unit": "%"}, {"measurement": "% AChE Inhibition in rat plasma", "setting": "AChE [3]; 15 min", "value": "65.00 ± 0.0292", "unit": "%"}, {"measurement": "% AChE Inhibition in rat plasma", "setting": "AChE [3]; 20 min, listed as COL + ORSM", "value": "66.57 ± 0.0344", "unit": "%"}, {"measurement": "% AChE Inhibition in rat plasma", "setting": "AChE [3]; 30 min, listed as COL + ORSM", "value": "66.82 ± 0.0101", "unit": "%"}, {"measurement": "% AChE Inhibition in rat plasma", "setting": "AChE [3]; 60 min, listed as COL + ORSM", "value": "67.53 ± 0.0096", "unit": "%"}, {"measurement": "% AChE Inhibition in rat plasma", "setting": "AChE [3]; 90 min, listed as COL + ORSM", "value": "61.88 ± 0.0149", "unit": "%"}, {"measurement": "% AChE Inhibition in rat plasma", "setting": "AChE [3]; 120 min, listed as COL + ORSM", "value": "60.64 ± 0.0186", "unit": "%"}, {"measurement": "% AChE Inhibition in rat plasma", "setting": "AChE [3]; 180 min, listed as COL + ORSM", "value": "47.43 ± 0.0393", "unit": "%"}, {"measurement": "Score on actophotometer", "setting": "[4]", "value": "240.00 ± 19.54"}]}
